In this assay the test system is murine peritoneal macrophages. As to the kind of experiment: Secretion of nitric oxide by murine peritoneal macrophages in vitro (Griess reaction). The format is cell-based, ICR mice. The following applies: 24 hours. As to the method: Ten ICR mice were injected intraperitoneally with 1 ml 3% w/v aqueous thioglycolate. After 3 days, the mice were sacrificed by cervical dislocation. Macrophages were harvested by opening the peritoneum and lavaging the space with PBS. The PBS lavage from each sacrificed mouse was pooled. […] The cells were allowed to adhere on the bottom of the wells of microtiter plates for 1 hr at 37° C. in a humidified atmosphere of […] and 5% CO2. Next, the supernatant in the wells was carefully removed. […] The contacted cells were incubated at 37° C. in a humidified atmosphere of […] and 5% CO2 for 24 hours. At 24 hours, the amount of nitrate present in the cell-free culture medium was determined by the Griess reaction. (See Green L. C. et al, Analysis of nitrate, nitrite, and [15N] nitrate in biological fluids, Anal. Biochem., 1982, 126:131-138.) A 150 μl aliquot of cell-free culture medium was pipetted from each microtiter plate well, and reacted with 50 μl of Griess reagent for 10 minutes in a fresh microtiter plate well. Absorbance of the aliquot was then measured at 540 nm using a microplate reader (BTI, ELX 800).
A general note: Nitrite, measured by Griess reagent, commonly stands in for NO production.

We go through 1 substance from patent publication US8158750B2, “Preparation and standardization of immunomodulatory peptide-linked glucans with verifiable oral absorbability from coriolus versicolor” (The Chinese University of Hong Kong, priority 2002, dated 2012).

Take lipopolysaccharide [LPS]: the “Increased secretion of nitric oxide, dose dependence” value is on record as “dose-dependent at low LPS concentrations”.
